The test system of the assay is P388 leukemia ip, CD2F1 mice, survival T/C. Briefly: NCI In Vivo Anticancer Drug Screen. Data for tumor model P388 Leukemia (intraperitoneal) in CD2F1 (CDF1) mice. Particulars: endpoint: median survival time, higher = longer survival. The method in brief: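 Mice carrying the transplanted tumor received test compound or vehicle. Survival was recorded in each group, and the value is the treated-group measurement divided by that of the vehicle-treated control group.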

Where [1] appears, read: dose: 50.0 mg/kg/injection, schedule: Q01DX009 (ip), vehicle: Klucel (hydroxypropylcellulose) (HPC).
[2] abbreviates: dose: 100.0 mg/kg/injection, schedule: Q01DX009 (ip), vehicle: Klucel (hydroxypropylcellulose) (HPC).
Setting [3] is: dose: 50.0 mg/kg/injection, schedule: Q01DX005 (ip), vehicle: saline with Tween-80.
[4] abbreviates: dose: 100.0 mg/kg/injection, schedule: Q01DX005 (ip), vehicle: saline with Tween-80.
The mark [5] stands for this setting: dose: 200.0 mg/kg/injection, schedule: Q01DX005 (ip), vehicle: saline with Tween-80.
Where [6] appears, read: dose: 60.0 mg/kg/injection, schedule: Q01DX005 (ip), vehicle: Klucel (hydroxypropylcellulose) (HPC).
Setting [7] is: dose: 120.0 mg/kg/injection, schedule: Q01DX005 (ip), vehicle: Klucel (hydroxypropylcellulose) (HPC).
Where [8] appears, read: dose: 240.0 mg/kg/injection, schedule: Q01DX005 (ip), vehicle: Klucel (hydroxypropylcellulose) (HPC).
Setting [9] is: dose: 100.0 mg/kg/injection, schedule: Q01DX009 (ip), vehicle: saline with Tween-80.
The mark [10] stands for this setting: dose: 200.0 mg/kg/injection, schedule: Q01DX009 (ip), vehicle: saline with Tween-80.
[11] abbreviates: dose: 400.0 mg/kg/injection, schedule: Q01DX009 (ip), vehicle: saline with Tween-80.
[12] abbreviates: dose: 50.0 mg/kg/injection, schedule: Q01DX005 (ip), vehicle: Klucel (hydroxypropylcellulose) (HPC).
Setting [13] is: dose: 100.0 mg/kg/injection, schedule: Q01DX005 (ip), vehicle: Klucel (hydroxypropylcellulose) (HPC).
Setting [14] is: dose: 200.0 mg/kg/injection, schedule: Q01DX005 (ip), vehicle: Klucel (hydroxypropylcellulose) (HPC).
[15] abbreviates: dose: 25.0 mg/kg/injection, schedule: Q01DX009 (ip), vehicle: Klucel (hydroxypropylcellulose) (HPC).

Each structure is given as a SMILES string. Values joined by “and” are separate entries in the source; they are usually repeats but may differ in a detail not shown here. Equal values may be shown once. Toxic doses and inconclusive results are not listed. Peptide text beside a SMILES is read from it.

For `CSc1cccc(NC(=O)OCCOc2ccc([N+](=O)[O-])cc2)c1`, the T/C under setting [1] is 98 % of control; the T/C under setting [2] was 101 % of control; the T/C (dose: 200.0 mg/kg/injection, schedule: Q01DX009 (ip), vehicle: Klucel (hydroxypropylcellulose) (HPC)) is 99 % of control.
Turning to `C[C@]12C=CC(=O)NC[C@@H]1CC[C@@H]1[C@@H]2CC[C@]2(C)[C@@H](OC(=O)COc3ccc(N(CCCl)CCCl)cc3)CC[C@@H]12`, the T/C runs as follows: (dose: 7.5 mg/kg/injection, schedule: Q01DX005 (ip), vehicle: saline with Tween-80) 120 % of control; (dose: 15.0 mg/kg/injection, schedule: Q01DX005 (ip), vehicle: saline with Tween-80) 120 % of control; (dose: 30.0 mg/kg/injection, schedule: Q01DX005 (ip), vehicle: saline with Tween-80) 151 % of control; (dose: 60.0 mg/kg/injection, schedule: Q01DX005 (ip), vehicle: saline with Tween-80) 198 % of control and 255 % of control; (dose: 120.0 mg/kg/injection, schedule: Q01DX005 (ip), vehicle: saline with Tween-80) 157 % of control.
In the case of `O=C1CCCN1.O=C1CCCN1.[Br][Co][Br]`, the T/C was 104 % of control (dose: 25.0 mg/kg/injection, schedule: Q01DX009 (ip), vehicle: saline with Tween-80) and 122 % of control (dose: 50.0 mg/kg/injection, schedule: Q01DX009 (ip), vehicle: saline with Tween-80).
Take `O=C(Nc1ccccc1)Nc1ccc2c(c1)C(=O)CCCC2`: the T/C by setting is: under setting [3], 96 % of control; under setting [4], 93 % of control; under setting [5], 94 % of control.
With `O=C1OC(c2ccccc2)=N/C1=C/c1c(Cl)n(-c2ccccc2)c2ccccc12`, the T/C by setting is: (dose: 100.0 mg/kg/injection, schedule: Q01DX001 (ip), vehicle: Klucel (hydroxypropylcellulose) (HPC)) 96 % of control; (dose: 200.0 mg/kg/injection, schedule: Q01DX001 (ip), vehicle: Klucel (hydroxypropylcellulose) (HPC)) 94 % of control; (dose: 400.0 mg/kg/injection, schedule: Q01DX001 (ip), vehicle: Klucel (hydroxypropylcellulose) (HPC)) 93 % of control.
As to `O=C1CC(CO)CC2c3[nH]c4ccccc4c3CCN12` (stereo unspecified), the T/C is 108 % of control (dose: 17.5 mg/kg/injection, schedule: Q01DX005 (ip), vehicle: Klucel (hydroxypropylcellulose) (HPC)); 91 % of control (dose: 35.0 mg/kg/injection, schedule: Q01DX005 (ip), vehicle: Klucel (hydroxypropylcellulose) (HPC)); 97 % of control (dose: 70.0 mg/kg/injection, schedule: Q01DX005 (ip), vehicle: Klucel (hydroxypropylcellulose) (HPC)).
Take `CCCCNc1ncc(S(=O)(=O)Cc2ccc3c(c2)OCO3)c(N)n1`: the T/C was 94 % of control (dose: 100.0 mg/kg/injection, schedule: Q04DX002 (ip), vehicle: saline); 100 % of control (dose: 200.0 mg/kg/injection, schedule: Q04DX002 (ip), vehicle: saline); 90 % of control (dose: 400.0 mg/kg/injection, schedule: Q04DX002 (ip), vehicle: saline).
Regarding `CCOC(=O)c1cnc2cc3c(cc2c1Nc1cccc(C)c1)OCO3`, the T/C was 95 % of control under setting [6], 99 % of control under setting [7] and 91 % of control under setting [8].
With `O=[N+]([O-])c1ccc(/C=N\N=C\c2ccco2)cc1`, the T/C reads like this: under setting [9], 90 % of control; under setting [10], 100 % of control; under setting [11], 90 % of control.
For `O=[n+]1cc2ccccn2cc1-c1ccccc1`, the T/C is, setting by setting: under setting [9], 90 % of control; under setting [10], 95 % of control; under setting [11], 118 % of control.
With `CCN(CC)[Si](C)(C)C`, the T/C is, setting by setting: (dose: 60.0 mg/kg/injection, schedule: Q01DX005 (ip), vehicle: saline) 93 % of control; (dose: 120.0 mg/kg/injection, schedule: Q01DX005 (ip), vehicle: saline) 94 % of control.
In the case of `Cc1cccc(N2CCN(c3ccc4nonc4c3[N+](=O)[O-])CC2)c1`, the T/C was 98 % of control (dose: 50.0 mg/kg/injection, schedule: Q01DX009 (ip), vehicle: suspension in saline); 92 % of control and 95 % of control (dose: 100.0 mg/kg/injection, schedule: Q01DX009 (ip), vehicle: suspension in saline); 89 % of control and 90 % of control (dose: 200.0 mg/kg/injection, schedule: Q01DX009 (ip), vehicle: suspension in saline).
For the compound `CC(N)C(=O)NC(Cc1ccc(O)cc1)C(N)=O` (stereo not drawn) (H-Ala-Tyr-NH2; configuration not given here), the T/C reads like this: under setting [12], 108 % of control; under setting [13], 105 % of control; under setting [14], 100 % of control.
For the compound `Cc1ccc(Sc2cccc3c(C)c4cccc5c4c(c23)C[S+]5c2ccc(C)cc2)cc1` (stereo unspecified), the T/C by setting is: (dose: 2.0 mg/kg/injection, schedule: Q01DX009 (ip), vehicle: saline with Tween-80) 104 % of control; (dose: 3.0 mg/kg/injection, schedule: Q01DX009 (ip), vehicle: saline with Tween-80) 122 % of control.
Turning to `C=C(C)C1CCC2(C)CC3C(=C)CC(O)C(O)C3(C)CCC12` (stereo unspecified), the T/C by setting is: (dose: 4.0 mg/kg/injection, schedule: Q01DX009 (ip), vehicle: Klucel (hydroxypropylcellulose) (HPC)) 104 % of control; (dose: 8.0 mg/kg/injection, schedule: Q01DX009 (ip), vehicle: Klucel (hydroxypropylcellulose) (HPC)) 101 % of control; (dose: 16.0 mg/kg/injection, schedule: Q01DX009 (ip), vehicle: Klucel (hydroxypropylcellulose) (HPC)) 101 % of control; (dose: 32.0 mg/kg/injection, schedule: Q01DX009 (ip), vehicle: Klucel (hydroxypropylcellulose) (HPC)) 104 % of control.
Take `O=C1OC2(c3ccc(O)cc3Oc3cc(O)ccc32)c2cccc3cccc1c23`: the T/C was 105 % of control under setting [12], 99 % of control under setting [13] and 103 % of control under setting [14].
As to `CCOc1ccc2cc3c(nc2n1)[nH]c1ccccc13`, the T/C (dose: 100.0 mg/kg/injection, schedule: Q04DX003 (ip), vehicle: Klucel (hydroxypropylcellulose) (HPC)) is 103 % of control; the T/C (dose: 200.0 mg/kg/injection, schedule: Q04DX003 (ip), vehicle: Klucel (hydroxypropylcellulose) (HPC)) is 107 % of control; the T/C (dose: 400.0 mg/kg/injection, schedule: Q04DX003 (ip), vehicle: Klucel (hydroxypropylcellulose) (HPC)) is 110 % of control.
For the compound `S=C(S)n1nc(-c2ccccc2)c(N=Nc2ccc(Cl)cc2Cl)c1-c1ccccc1`, the T/C under setting [3] was 94 % of control, the T/C under setting [4] was 89 % of control and the T/C under setting [5] was 89 % of control.
In the case of `CC(=O)OC1(c2ccccc2)N=C(c2ccccc2)N=C1c1ccccc1` (stereo unspecified), the T/C by setting is: under setting [6], 106 % of control; under setting [7], 110 % of control; under setting [8], 105 % of control.
`O=C1c2ccccc2CCC12OC2c1cccnc1` (stereo unspecified): the T/C reads like this: under setting [15], 100 % of control; under setting [1], 100 % of control; under setting [2], 104 % of control.
Turning to `OCC1(O)OCC(O)C(O)C1O` (stereo unspecified), the T/C was 99 % of control (dose: 100.0 mg/kg/injection, schedule: Q01DX009 (ip), vehicle: saline); 98 % of control (dose: 200.0 mg/kg/injection, schedule: Q01DX009 (ip), vehicle: saline); 105 % of control (dose: 400.0 mg/kg/injection, schedule: Q01DX009 (ip), vehicle: saline).
For the compound `C=C1C(=O)OC2/C=C(/C)C3(O)OC(C)(CC(OC(=O)C(C)C)C12)CC3OC(C)=O` (stereo unspecified), the T/C was 110 % of control under setting [15] and 116 % of control under setting [1].
Turning to `C/C(=N\N=C/N(C)S(C)(=O)=O)c1ccccc1`, the T/C by setting is: under setting [12], 104 % of control; under setting [13], 104 % of control; under setting [14], 99 % of control.
In the case of `O=C1c2ccccc2C(=O)N1Cc1ccccc1`, the T/C is 104 % of control (dose: 100.0 mg/kg/injection, schedule: Q04DX003 (ip), vehicle: saline with Tween-80); 95 % of control (dose: 200.0 mg/kg/injection, schedule: Q04DX003 (ip), vehicle: saline with Tween-80); 100 % of control (dose: 400.0 mg/kg/injection, schedule: Q04DX003 (ip), vehicle: saline with Tween-80).

For the origin of these results see PubChem BioAssay AID330 (DTP/NCI, 2004).
